Reference: the NIST ThermoML archive (doi:10.1021/acs.jced.8b00975)

Test: xn = mol fraction of the nth substance listed
Conditions: Liquid, Vibrating tube method

C=C(C)C(=O)OCCN(C)C [2-(dimethylamino)ethyl methylpropenoate] + CCCCCO
mass density [kg/m3]
Conditions	100 kPa	5000 kPa	10000 kPa	15000 kPa	20000 kPa	25000 kPa	30000 kPa	35000 kPa
293.15 K, x1 = 0.0299	821.4	824.97	828.31	831.49	834.52	837.46	840.35	843.21
293.15 K, x1 = 0.0601	827.36	830.88	834.21	837.36	840.4	843.36	846.28	849.21
293.15 K, x1 = 0.1006	834.83	838.39	841.73	844.91	847.96	850.92	853.82	856.7
293.15 K, x1 = 0.2011	851.81	855.36	858.7	861.88	864.94	867.91	870.84	873.77
293.15 K, x1 = 0.3004	866.6	870.17	873.54	876.75	879.84	882.84	885.78	888.7
293.15 K, x1 = 0.402	879.66	883.27	886.67	889.9	893.01	896.03	899.02	902
293.15 K, x1 = 0.4518	885.55	889.17	892.6	895.88	899.03	902.08	905.07	908.03
293.15 K, x1 = 0.5004	890.97	894.63	898.09	901.38	904.54	907.61	910.63	913.62
293.15 K, x1 = 0.5486	896.13	899.78	903.24	906.53	909.71	912.79	915.83	918.85
293.15 K, x1 = 0.601	901.42	905.08	908.55	911.86	915.05	918.14	921.18	924.2
293.15 K, x1 = 0.7021	910.74	914.43	917.91	921.22	924.41	927.53	930.63	933.76
293.15 K, x1 = 0.8019	918.94	922.6	926.1	929.46	932.72	935.91	939.06	942.19
293.15 K, x1 = 0.9008	926.27	929.96	933.48	936.87	940.15	943.35	946.5	949.63
293.15 K, x1 = 0.9306	928.32	932.04	935.56	938.93	942.19	945.38	948.54	951.72
293.15 K, x1 = 0.9645	930.63	934.34	937.87	941.25	944.51	947.7	950.84	953.97
303.15 K, x1 = 0.0307	814.24	818.14	821.74	825.07	–	–	–	–
303.15 K, x1 = 0.0604	819.89	823.73	827.29	830.63	–	–	–	–
303.15 K, x1 = 0.1009	827.11	830.9	834.46	837.81	–	–	–	–
303.15 K, x1 = 0.2025	843.87	847.62	851.18	854.56	–	–	–	–
303.15 K, x1 = 0.3	857.94	861.71	865.28	868.68	–	–	–	–
303.15 K, x1 = 0.3999	870.67	874.45	878.06	881.52	–	–	–	–
303.15 K, x1 = 0.4506	876.6	880.36	883.98	887.47	–	–	–	–
303.15 K, x1 = 0.5037	882.4	886.19	889.83	893.35	–	–	–	–
303.15 K, x1 = 0.5495	887.14	890.94	894.58	898.1	–	–	–	–
303.15 K, x1 = 0.6012	892.24	896.07	899.73	903.25	–	–	–	–
303.15 K, x1 = 0.7014	901.28	905.16	908.86	912.4	–	–	–	–
303.15 K, x1 = 0.8023	909.34	913.19	916.92	920.53	–	–	–	–
303.15 K, x1 = 0.9025	916.57	920.44	924.19	927.82	–	–	–	–
303.15 K, x1 = 0.9307	918.44	922.34	926.12	929.8	–	–	–	–
303.15 K, x1 = 0.9625	920.67	924.56	928.32	931.98	–	–	–	–
